Assay results reported in patent US12662714B2, “Method for separation of adjacent lanthanide elements” (UT-Battelle, LLC, priority 2022, dated 2026).

Columns and labels:
[1] = REE(III)-HCl-EHEHPA system; cited from earlier work
Solubility = format: physicochemical
Source text: The solubility of 1 in 0.9 M nitric acid (HNO3) is >0.2 M. The three DGAs selected for this study were: N,N′-dimethyl-N,N′-di(n-octyl)diglycolamide (DMDODGA, 3), N,N,N′,N′-tetra(n-octyl)diglycolamide (TODGA, 4), and N,N-didodecyl-2-((1-hexyl-2-oxopiperidin-3-yl)oxy)acetamide (DDHPA, 5), whose structures are shown above. […] However, they differ in terms of binding affinity for lanthanides in the order 3>4>5. The stability of DGA-Ln complexes is affected by the size of N-alkyl substituents on the DGA ligand; larger substituents tend to obstruct the metal ion binding site that is decorated with three oxygen donor groups, resulting in diminished affinity for Lns with lower effective nuclear charge. Ligand 2, with unconstrained amide groups, was synthesized as a control substrate.
However, its performance in separating Lns is very different.

[2] = 1H NMR titration, binding constants for La complexes; settings: 1 M DNO3
Source text: Complexation of 1 with lanthanides was further assessed using nuclear magnetic resonance (NMR) spectroscopy. […] As the concentration of La increases (top to bottom), a downfield shift of ˜1.1 ppm occurs in the most downfield aromatic ^1H of 1, confirming complex formation. […] For 1 alone, some heterogeneity and broadening in the peak structure is observed, which can be attributed to aggregate formation. While the ethylene glycol units solubilize 1, the hydrophobic cores still cluster together to form aggregate structures (vide infra). As the La concentration increases, it disrupts these clusters and stabilizes 1-La units. The change in chemical shift of the most downfield aromatic ^1H was used to assess binding constants for La complexes with 1 in 1 M DNO3. The results were fitted using commercial software to yield binding constants of K1>10^2 M^−1 and K2>>10^5 M^−1 for the 1:1 and 2:1 ligand to metal binding modes, respectively. […] In the Lu titration, some downfield shift was observed, but the peaks became increasingly heterogenous and broad. This may be attributed to poor binding affinity where transient interactions occur, but no stable structure was formed, which was consistent with the selectivity data presented above.

[3] = SAXS, radius of gyration of aggregates in solution; format: physicochemical
Protocol: The mesoscale structure of 1 and 1-Pr complexes in the aqueous solution and the local coordination environment around Pr in the 1-Pr structure were investigated using small-angle X-ray scattering (SAXS) and extended X-ray absorption fine structure (EXAFS) spectroscopy at the Pr L3 edge, respectively. In the absence of Pr, 13 mM of 1 in 1 M HNO3 forms large aggregates with a radius of gyration (Rg) of ˜15 A, as represented by the steepest slope in FIG. 5a. The addition of smaller amounts of Pr (2.5 mM) reduces the aggregate size in solution by ˜5 A.
Under conditions where 1 is expected to be fully coordinated with Pr (assuming the formation of [Pr-(1)2(NO3)3], when [Pr]=7.5 mM), the aggregates further reduce in size (Rg=6.7 A). This is consistent with the trends seen in the NMR data above. In addition, variable temperature NMR was taken of 1 without and with Pr. At elevated temperatures (up to 313 K), the spectral quality of 1 degrades dramatically and is irreversible, which is indicative of additional aggregate formation in solution. In the presence of Pr, however, the ^1H chemical shifts representing 1 remain unchanged and the peaks narrow due to increased molecular motion.

[4] = Extraction of 14 Lns from aqueous phase into oil phase
Protocol: (§1) General procedure: a 500 microliter (μL) aqueous phase consisting of 7 mM Ln(III) (0.5 mM of each Ln(III)) in 1 M HNO3 without or with aqBLPhen 1 (3, 13, or 25 mM) was contacted with an equal volume of organic phase containing 0.1 M DGA (3, 4, or 5). The two phases were contacted in a 1:1 ratio of organic/aqueous by end-over-end rotation in individual 1.8 mL capacity snap-top Eppendorf tubes using a rotating wheel in an airbox set at 25.5±0.5° C. Contacts were performed in triplicate with a contact time of 1 hour. The samples were centrifuged at 1811 g for 2 min at room temperature to separate the phases. Each triplicate was then sub-sampled, using a 300 μL aliquot of the aqueous phase transferred to individual polypropylene tubes and diluted with 2% HNO3 for analysis using ICP-MS or ICP-OES. Two samples of the initial lanthanide solution were similarly prepared.
(§2) The ability of 1 and DGA to separate Lns was evaluated using a two-component, immiscible solvent system: nitric acid (aqueous phase containing 1) and n-dodecane with 10 vol % 1-octanol (oil phase containing DGA). The amount of Ln partitioned from the aqueous phase into the oil phase was measured using inductively coupled plasma optical emission spectroscopy or mass spectrometry. The Ln concentration in each phase was then used to calculate the separation efficiency.
(§3) The percentage of Lns in the aqueous and the oil phases is presented in FIGS. 1a-1i. for each DGA in the absence and presence of the aqueous complexant 1 (E=([Ln1]/[Ln1]0)×100%). The distribution ratios (i.e., D=[Ln1]org/[Ln1]aq) for select Lns are listed in Table 1, which also include selectivities (i.e., SFLn1/Ln2=DLn1/DLn2), for several Ln pairs. An efficient separation of Lns was achieved when DLn1>1 and DLn2<1 or ELn1>50% and ELn2<50%. […] Neither of the three DGAs can separate Lns in a single extraction stage.

[5] = Solvent extraction of Lns, distribution ratio of La; settings: 1 M HNO3, 1 h
Protocol: as §1, §2, §3

[6] = Solvent extraction of Lns, distribution ratio of Nd; settings: 0.1 M DGA, 1 M HNO3, 1 h
Protocol: as §1, §2, §3

[7] = Solvent extraction of Lns, distribution ratio of Sm; settings: 0.1 M DGA, 1 M HNO3, 1 h
Protocol: as §1, §2, §3

[8] = Solvent extraction of Lns, distribution ratio of Gd; settings: 0.1 M DGA, 1 M HNO3, 1 h
Protocol: as §1, §2, §3

[9] = Solvent extraction of Lns, separation factor Nd/Pr; settings: 0.1 M DGA, 1 M HNO3, 1 h
Protocol: as §1, §2, §3

[10] = Solvent extraction of Lns, separation factor Sm/Nd; settings: 0.1 M DGA, 1 M HNO3, 1 h
Protocol: as §1, §2, §3

[11] = Solvent extraction of Lns, separation factor Tb/Gd; settings: 0.1 M DGA, 1 M HNO3, 1 h
Protocol: as §1, §2, §3

[12] = Solvent extraction of Lns, separation factor Dy/Nd; settings: 0.1 M DGA, 1 M HNO3, 1 h
Protocol: as §1, §2, §3

[13] = Solvent extraction of Lns, separation factor Gd/La; settings: 0.1 M DGA, 1 M HNO3, 1 h
Protocol: as §1, §2, §3

[14] = [1] 0 mM, 0.1 M DGA in n-dodecane with 10 vol % 1-octanol, 0.5 mM each Ln

CCCCC(CC)COP(=O)(O)CC(CC)CCCC (stereo not shown) [EHEHPA, 2-ethylhexylphosphonic acid mono-(2-ethylhexyl) ester]
selectivity for Nd over Pr [1]: 1.17

O=c1[nH]c(COCCO)c(COCCO)c2cc3ccc4cc5c(COCCO)c(COCCO)[nH]c(=O)c5nc4c3nc12 [Ligand 1, 3,4,9,10-tetrakis((2-hydroxyethoxy)methyl)-2,11-dihydrodipyrido[3,4-b:4′,3′-j]1,10 phenanthroline-1,12-dione]
solubility (Solubility; aqueous buffer, in 0.9 M nitric acid (HNO3)): > 200 mM | binding constant K1 (1:1 ligand to metal) [2]: > 10^2 M^−1 | binding constant K2 (2:1 ligand to metal) [2]: > 10^5 M^−1 | reduction of aggregate size ([3]; 13 mM of 1, Pr 2.5 mM): ~5 A | radius of gyration (Rg) of aggregates ([3]; 13 mM of 1, [Pr]=7.5 mM): 6.7 A | radius of gyration (Rg) of aggregates ([3]; 13 mM of 1 in 1 M HNO3, absence of Pr): ~15 A

O=C(c1ccc2ccc3ccc(C(=O)N(CCOCCO)CCOCCO)nc3c2n1)N(CCOCCO)CCOCCO [Ligand 2]
aqueous solubility (Solubility; aqueous): excellent aqueous solubility | affinity for light lanthanides as aqueous complexant ([4]; 13 mM in aqueous phase, FIG. 2): limited affinity for light lanthanides

CCCCCCCCN(CCCCCCCC)C(=O)COCC(=O)N(CCCCCCCC)CCCCCCCC [Ligand 4, N,N,N′,N′-tetra(n-octyl)diglycolamide]
DLa distribution ratio [5, 14]: 2.52 | DLa distribution ratio ([5]; [1] 3 mM, 0.1 M DGA): 0.21 | DLa distribution ratio ([5]; [1] 13 mM, 0.1 M DGA): 0.05 | DLa distribution ratio ([5]; [1] 25 mM, 0.1 M DGA): 0.05 | DNd distribution ratio ([6]; [1] 0 mM): 18.6 | DNd distribution ratio ([6]; [1] 3 mM): 2.18 | DNd distribution ratio ([6]; [1] 13 mM): 0.15 | DNd distribution ratio ([6]; [1] 25 mM): 0.14 | DSm distribution ratio ([7]; [1] 0 mM): 120 | DSm distribution ratio ([7]; [1] 3 mM): 28.1 | DSm distribution ratio ([7]; [1] 13 mM): 2.35 | DSm distribution ratio ([7]; [1] 25 mM): 1.82 | DGd distribution ratio ([8]; [1] 0 mM): 386 | DGd distribution ratio ([8]; [1] 3 mM): 164 | DGd distribution ratio ([8]; [1] 13 mM): 19.3 | DGd distribution ratio ([8]; [1] 25 mM): 14.2 | SFNd/Pr separation factor ([9]; [1] 0 mM): 2.2 | SFNd/Pr separation factor ([9]; [1] 3 mM): 2.7 | SFNd/Pr separation factor ([9]; [1] 13 mM): 2.2 | SFNd/Pr separation factor ([9]; [1] 25 mM): 1.8 | SFSm/Nd separation factor ([10]; [1] 0 mM): 6.4 | SFSm/Nd separation factor ([10]; [1] 3 mM): 13 | SFSm/Nd separation factor ([10]; [1] 13 mM): 16 | SFSm/Nd separation factor ([10]; [1] 25 mM): 13 | SFTb/Gd separation factor ([11]; [1] 0 mM): 2.7 | SFTb/Gd separation factor ([11]; [1] 3 mM): 3.4 | SFTb/Gd separation factor ([11]; [1] 13 mM): 5.4 | SFTb/Gd separation factor ([11]; [1] 25 mM): 5.3 | SFDy/Nd separation factor ([12]; [1] 0 mM): 70 | SFDy/Nd separation factor ([12]; [1] 3 mM): 408 | SFDy/Nd separation factor ([12]; [1] 13 mM): 1052 | SFDy/Nd separation factor ([12]; [1] 25 mM): 782 | SFGd/La separation factor ([13]; [1] 0 mM): 153 | SFGd/La separation factor ([13]; [1] 3 mM): 783 | SFGd/La separation factor ([13]; [1] 13 mM): 413 | SFGd/La separation factor ([13]; [1] 25 mM): 308 | extraction of Lns from the aqueous phase into the oil phase ([4]; 0.1 M DGA alone, 14 Lns 0.5 mM each, 1 M HNO3): reduced affinity for light Lns

CCCCCCCCCCCCN(CCCCCCCCCCCC)C(=O)COC1CCCN(CCCCCC)C1=O (stereo not shown) [Ligand 5, N,N-didodecyl-2-((1-hexyl-2-oxopiperidin-3-yl)oxy)acetamide]
DLa distribution ratio [5, 14]: 0.18 | DLa distribution ratio ([5]; [1] 3 mM, 0.1 M DGA): 0.12 | DLa distribution ratio ([5]; [1] 13 mM, 0.1 M DGA): 0.08 | DLa distribution ratio ([5]; [1] 25 mM, 0.1 M DGA): 0.06 | DNd distribution ratio ([6]; [1] 0 mM): 0.87 | DNd distribution ratio ([6]; [1] 3 mM): 0.32 | DNd distribution ratio ([6]; [1] 13 mM): 0.08 | DNd distribution ratio ([6]; [1] 25 mM): 0.07 | DSm distribution ratio ([7]; [1] 0 mM): 6.21 | DSm distribution ratio ([7]; [1] 3 mM): 2.53 | DSm distribution ratio ([7]; [1] 13 mM): 0.16 | DSm distribution ratio ([7]; [1] 25 mM): 0.17 | DGd distribution ratio ([8]; [1] 0 mM): 23.0 | DGd distribution ratio ([8]; [1] 3 mM): 13.4 | DGd distribution ratio ([8]; [1] 13 mM): 0.98 | DGd distribution ratio ([8]; [1] 25 mM): 0.88 | SFNd/Pr separation factor ([9]; [1] 0 mM): 2.0 | SFNd/Pr separation factor ([9]; [1] 3 mM): 1.8 | SFNd/Pr separation factor ([9]; [1] 13 mM): 0.9 | SFNd/Pr separation factor ([9]; [1] 25 mM): 1.0 | SFSm/Nd separation factor ([10]; [1] 0 mM): 7.2 | SFSm/Nd separation factor ([10]; [1] 3 mM): 8.0 | SFSm/Nd separation factor ([10]; [1] 13 mM): 2.0 | SFSm/Nd separation factor ([10]; [1] 25 mM): 2.5 | SFTb/Gd separation factor ([11]; [1] 0 mM): 3.3 | SFTb/Gd separation factor ([11]; [1] 3 mM): 3.7 | SFTb/Gd separation factor ([11]; [1] 13 mM): 5.1 | SFTb/Gd separation factor ([11]; [1] 25 mM): 5.8 | SFDy/Nd separation factor ([12]; [1] 0 mM): 130 | SFDy/Nd separation factor ([12]; [1] 3 mM): 260 | SFDy/Nd separation factor ([12]; [1] 13 mM): 133 | SFDy/Nd separation factor ([12]; [1] 25 mM): 123 | SFGd/La separation factor ([13]; [1] 0 mM): 128 | SFGd/La separation factor ([13]; [1] 3 mM): 109 | SFGd/La separation factor ([13]; [1] 13 mM): 12 | SFGd/La separation factor ([13]; [1] 25 mM): 14
